Results on 34 compounds are retold here after patent US8796467B2, “Compounds” (Boehringer Ingelheim International GmbH, priority 2011, dated 2014).

T1 sequence (P41594 21-1212): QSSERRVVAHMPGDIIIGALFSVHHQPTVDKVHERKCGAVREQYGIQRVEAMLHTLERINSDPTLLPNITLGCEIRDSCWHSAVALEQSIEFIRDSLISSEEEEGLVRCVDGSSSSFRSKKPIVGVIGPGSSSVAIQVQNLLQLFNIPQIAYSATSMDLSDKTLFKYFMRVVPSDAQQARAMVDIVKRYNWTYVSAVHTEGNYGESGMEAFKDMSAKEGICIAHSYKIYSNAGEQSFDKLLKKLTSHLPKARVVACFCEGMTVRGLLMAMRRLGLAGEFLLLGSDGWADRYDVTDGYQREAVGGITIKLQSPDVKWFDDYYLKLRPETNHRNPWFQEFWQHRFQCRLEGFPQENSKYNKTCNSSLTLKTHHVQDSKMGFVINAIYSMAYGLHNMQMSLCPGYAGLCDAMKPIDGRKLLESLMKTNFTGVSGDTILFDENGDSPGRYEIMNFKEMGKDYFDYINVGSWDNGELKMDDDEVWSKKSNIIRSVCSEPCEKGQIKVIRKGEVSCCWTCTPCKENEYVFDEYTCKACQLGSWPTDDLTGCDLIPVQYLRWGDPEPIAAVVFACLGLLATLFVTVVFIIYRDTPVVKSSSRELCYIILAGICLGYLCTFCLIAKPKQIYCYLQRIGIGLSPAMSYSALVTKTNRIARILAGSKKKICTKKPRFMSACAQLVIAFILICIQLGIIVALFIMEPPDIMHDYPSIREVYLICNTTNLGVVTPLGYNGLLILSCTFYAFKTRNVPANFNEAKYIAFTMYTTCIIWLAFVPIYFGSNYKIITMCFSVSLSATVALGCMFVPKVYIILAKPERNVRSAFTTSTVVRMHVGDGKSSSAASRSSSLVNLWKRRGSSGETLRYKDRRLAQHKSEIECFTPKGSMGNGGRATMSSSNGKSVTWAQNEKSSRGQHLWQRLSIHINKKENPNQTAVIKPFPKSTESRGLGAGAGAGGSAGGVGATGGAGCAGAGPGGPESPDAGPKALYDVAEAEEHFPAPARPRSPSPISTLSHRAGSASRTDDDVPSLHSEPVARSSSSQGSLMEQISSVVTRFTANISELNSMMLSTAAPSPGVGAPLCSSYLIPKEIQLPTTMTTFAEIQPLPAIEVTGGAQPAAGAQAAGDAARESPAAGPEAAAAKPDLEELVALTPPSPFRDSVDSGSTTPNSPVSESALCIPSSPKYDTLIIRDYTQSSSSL

This experiment has as its target T1, human recombinant mGluR5 (Homo sapiens, UniProt P41594).
T1 construct: expressed in transfected cells; hygromycin and geneticin selection, tetracycline-regulated
In words: Positive modulation of mGluR5, calcium based FLIPR assay in HEK 293 cell line. Particulars: EC50 of the modulation; HEK 293 cells expressing human recombinant mGluR5; glutamate at approximately 5% basal stimulation; peak height of Ca fluorescence signal. How it is done:
The positive modulation of mGluR5 is measured in a HEK 293 cell line expressing human recombinant mGluR5 and is detected with calcium based FLIPR assay. The cells are cultured with DMEM supplemented with 10% FCS, 2 μg/mL tetracycline, 100 μg/mL hygromycin and 500 μg/mL gneticin. The cell culture media is exchanged for tetracycline-free cell culture media 3-7 days before the assay. One day before the assay the cell culture medium is exchanged to DMEM without glutamine and phenol red and supplemented with 10% FCS, 100 μg/mL hygromycin and 500 μg/mL geneticin. On the assay day, the medium of the subconfluent cultures is removed and the cells are detached by addition of 2.5 ml EDTA (0.02%) per 175 cm2 culture flask for 1 minute. The cells are resuspend in Ringer solution (140 mM NaCl, 5 mM KCl, 2.5 mM CaCl2, 1.5 mM MgCl2, 5 mM Glucose, 10 mM Hepes; adjusted to pH 7.4 with NaOH), pooled and Ringer solution added to adjust the volume to 50 mL. The cell suspension is centrifuged for 5 min at 1500 U/min (425 g). The supernatant is removed and the cells washed a second time with 50 ml fresh Ringer solution and centrifuged again as before. The supernatant is again removed and the pellet resuspended in Ringer solution to 1,000,000 cells/ml (1×10^6 cells/mL). The cells are plated onto BD BioCoat Poly-D-Lysine 384 well plates (20,000 cells/well; 20 μl/well). The lid covered plates are then incubated until use at 37° C./10% CO2. For dye loading, 20 μl of Calcium-4 assay kit solution (prepared according to the manufacturer's description in Ringer solution) are added to the cells and the plates are incubated for 80 min 37° C. and then 10 min at room temperature.
Controls, Compound Dilution and Assay Execution:
Each assay plate contained wells with “high” and “low” controls: • Low controls 1% DMSO/ringer solution+basal glutamate activation (defined as 100% CTL). • High controls 10 μM CDPPB+basal glutamate activation (defined as 200% CTL).
Test compounds are dissolved and diluted in DMSO to 100-fold the desired concentrations. In a second step, the compounds are diluted in Ringer solution such that the compounds are 4-fold more concentrated than the desired final assay concentration. The final DMSO concentration was 1%.
20 μl of each compound solution are then transferred to the assay plate and the Ca2+ kinetic is measured to determine any intrinsic compound activity. After 5 min incubation in the FLIPR device, the second stimulation with 20 μl of glutamate in Ringer solution (glutamate concentration adjusted to approximately 5% basal stimulation of the maximal possible glutamate effect) is added and the kinetic Ca2+ response of the wells was measured for the modulation effect.
The peak height of the Ca release related fluorescence signal (9-66) is used for the EC50.
The EC50 of the modulation is calculated over a nonlinear regression with GraphPad Prism (Table 1).
As a reminder, the EC50 is the concentration at which the effect is half-maximal. Regarding `Nc1nc2c(s1)CCN(C(=O)Cn1cc(-c3ccc(F)cc3)nc1-c1ccc(F)cc1)CC2` [Example 7.01.18.], the EC50 was 0.448 µM.

Take `Cc1cc(-c2cn(CC(=O)N3CCN(c4cccc(C#N)c4)C(=O)C3)c(-c3ccc(F)cc3)n2)ccc1F` [Example 7.01.23]: the EC50 is 0.431 µM.

As for `Cc1cccc(-c2cn(CC(=O)N3Cc4nc(C)sc4C3)c(-c3ccccc3)n2)c1` [Example 7.01.19.], the EC50 amounted to 0.574 µM.

For the compound `Cc1nc2c(s1)CCN(C(=O)Cn1cc(-c3ccc(F)c(C)c3)nc1C(C)C)CC2` [Example 7.01.10.], the EC50 was 0.854 µM.

`Cc1nc2c(s1)CCN(C(=O)Cn1cc(-c3ccc(F)cc3)nc1-c1ccccc1)CC2` [Example 7.01.09.]: the EC50 amounted to 0.259 µM.

Turning to `Cc1cc(-c2cn(CC(=O)N3CCc4nc(N)sc4CC3)c(C3CCCCC3)n2)ccc1F` [Example 7.01.05.], the EC50 is 0.623 µM.

`Cc1nc2c(o1)CN(C(=O)Cn1cc(-c3ccc(F)c(C)c3)nc1-c1ccc(F)cc1)C2` [Example 7.01.34]: the EC50 was 0.101 µM.

`Cc1nc2c(s1)CCN(C(=O)Cn1cc(-c3ccc(F)c(C)c3)nc1-c1ccc(F)cc1)CC2` [Example 7.01.12.]: the EC50 amounted to 0.078 µM.

In the case of `CC(=O)Nc1nc2c(s1)CCN(C(=O)Cn1cc(-c3ccc(F)c(C)c3)nc1-c1ccccc1)CC2` [Example 7.01.28], the EC50 is 0.769 µM.

Consider `Cc1nc2c(s1)CN(C(=O)Cn1cc(-c3ccc(F)c(C)c3)nc1-c1ccc(F)cc1)C2` [Example 7.01.14.], for which the concentration for a half-maximal effect (EC50) is 0.064 µM.

`Cc1cc(-c2cn(CC(=O)N3CCc4nc(N)sc4C3)c(-c3ccccc3)n2)ccc1F` [Example 7.01.27]: the EC50 stood at 0.172 µM.

With `Nc1nc2c(s1)CCN(C(=O)Cn1cc(-c3ccc(F)cc3)nc1-c1ccccc1)CC2` [Example 7.01.08.], the EC50 was 0.738 µM.

As to `Cc1nc2c(o1)CN(C(=O)Cn1cc(-c3ccc(F)cc3)nc1-c1ccc(F)cc1)CC2` [Example 7.01.15.], the EC50 came out at 0.297 µM.

On to `Cc1nc2c(o1)CN(C(=O)Cn1cc(-c3ccc(F)c(C)c3)nc1-c1ccc(F)cc1)CC2` [Example 7.01.13.], for which the EC50 was found to be 0.04 µM.

For `Cc1cccc(-c2cn(CC(=O)N3CCc4nc(N)sc4CC3)c(-c3ccccc3)n2)c1` [Example 7.01.21.], the EC50 came out at 0.275 µM.

For `Cc1nc2c(s1)CN(C(=O)Cn1cc(-c3ccc(F)c(C)c3)nc1-c1ccccc1)CC2` [Example 7.01.31], the EC50 amounted to 0.108 µM.

In the case of `Cc1cc(-c2cn(CC(=O)N3CCN(c4ccccn4)C(=O)C3)c(-c3ccc(F)cc3)n2)ccc1F` [Example 7.01.26], the concentration for a half-maximal effect (EC50) was found to be 0.044 µM.

As to `Cc1nc2c(o1)CCN(C(=O)Cn1cc(-c3ccc(F)c(C)c3)nc1-c1ccccc1)C2` [Example 7.01.32], the EC50 came to 0.061 µM.

In the case of `Cc1nc2c(o1)CN(C(=O)Cn1cc(-c3ccc(F)c(C)c3)nc1C1CCCCC1)CC2` [Example 7.01.04.], the 50% effective concentration (EC50) turned out to be 0.885 µM.

Consider `Cc1nc2c(s1)CCN(C(=O)Cn1cc(-c3ccc(F)c(C)c3)nc1-c1ccccc1)CC2` [Example 7.01.01., 2-(4-(4-fluoro-3-methyl-phenyl)-2-phenyl-imidazol-1-yl)-1-(2-methyl-4,5,7,8-tetrahydro-thiazolo[4,5-d]azepin-6-yl)-ethanone], for which the EC50 is 0.09 µM.

As to `Cc1nc2c(o1)CCN(C(=O)Cn1cc(-c3ccc(F)c(C)c3)nc1-c1ccccc1)CC2` [Example 7.01.29], the EC50 amounted to 0.162 µM.

Regarding `Cc1cc(-c2cn(CC(=O)N3CCc4nc(N)sc4CC3)c(-c3ccc(F)cc3)n2)ccc1F` [Example 7.01.11.], the EC50 worked out at 0.107 µM.

Turning to `Cc1nc2c(s1)CCN(C(=O)Cn1cc(-c3ccc(F)cc3)nc1-c1ccc(F)cc1)CC2` [Example 7.01.17.], the EC50 was determined as 0.096 µM.

With `Cc1nc2c(s1)CCN(C(=O)Cn1cc(-c3ccc(F)c(C)c3)nc1C1CCCCC1)CC2` [Example 7.01.06.], the EC50 amounted to 0.332 µM.

Take `Cc1cc(-c2cn(CC(=O)N3CCc4ncsc4CC3)c(-c3ccccc3)n2)ccc1F` [Example 7.01.30]: the EC50 stood at 0.15 µM.

Consider `Cc1nc2c(o1)CN(C(=O)Cn1cc(-c3ccc(F)c(C)c3)nc1-c1ccccc1)C2` [Example 7.01.33], for which the EC50 is 0.127 µM.

`Cc1cc(-c2cn(CC(=O)N3CCN(c4cc(F)ccn4)C(=O)C3)c(-c3ccc(F)cc3)n2)ccc1F` [Example 7.01.25]: the EC50 worked out at 0.042 µM.

Turning to `Cc1nc2c(o1)CN(C(=O)Cn1cc(-c3ccc(F)cc3)nc1-c1ccccc1)CC2` [Example 7.01.07.], the 50% effective concentration (EC50) was found to be 0.939 µM.

As to `Cc1nc2c(s1)CN(C(=O)Cn1cc(-c3ccc(F)cc3)nc1-c1ccc(F)cc1)C2` [Example 7.01.16.], the EC50 worked out at 0.633 µM.

On to `Cc1cccc(-c2cn(CC(=O)N3CCc4nc(C)oc4C3)c(-c3ccccc3)n2)c1` [Example 7.01.22.], for which the EC50 was found to be 0.25 µM.

Take `COc1cccc(N2CCN(C(=O)Cn3cc(-c4ccc(F)c(C)c4)nc3-c3ccc(F)cc3)CC2=O)c1` [Example 7.01.24]: the EC50 is 0.09 µM.

As to `Cc1cccc(-c2cn(CC(=O)N3CCc4nc(C)sc4CC3)c(-c3ccccc3)n2)c1` [Example 7.01.20.], the EC50 was determined as 0.107 µM.

`Cc1nc2c(o1)CN(C(=O)Cn1cc(-c3ccc(F)c(C)c3)nc1-c1ccccc1)CC2` [Example 7.01.03.]: the EC50 was 0.09 µM.

Turning to `Cc1cc(-c2cn(CC(=O)N3CCc4nc(N)sc4CC3)c(-c3ccccc3)n2)ccc1F` [Example 7.01.02.], the EC50 was found to be 0.224 µM.
